Laboratory results from US20230365589A1, “NOVEL AMINE DERIVATIVES” (Sumitomo Pharma Co., Ltd., priority 2020, published 2023).
Like-named read-outs stand apart in the source and are kept apart here.

Tests used:
Assay type in all cases: biochemical
[1] = target: T1, DYRK2 (Homo sapiens, UniProt Q92630); experiment: Inhibition test on activity of DYRK family, mobility shift assay (MSA): DYRK2
T1 construct: purchased Carna Biosciences, Inc. 04-132
T1 sequence (Q92630 74-601 limits assumed): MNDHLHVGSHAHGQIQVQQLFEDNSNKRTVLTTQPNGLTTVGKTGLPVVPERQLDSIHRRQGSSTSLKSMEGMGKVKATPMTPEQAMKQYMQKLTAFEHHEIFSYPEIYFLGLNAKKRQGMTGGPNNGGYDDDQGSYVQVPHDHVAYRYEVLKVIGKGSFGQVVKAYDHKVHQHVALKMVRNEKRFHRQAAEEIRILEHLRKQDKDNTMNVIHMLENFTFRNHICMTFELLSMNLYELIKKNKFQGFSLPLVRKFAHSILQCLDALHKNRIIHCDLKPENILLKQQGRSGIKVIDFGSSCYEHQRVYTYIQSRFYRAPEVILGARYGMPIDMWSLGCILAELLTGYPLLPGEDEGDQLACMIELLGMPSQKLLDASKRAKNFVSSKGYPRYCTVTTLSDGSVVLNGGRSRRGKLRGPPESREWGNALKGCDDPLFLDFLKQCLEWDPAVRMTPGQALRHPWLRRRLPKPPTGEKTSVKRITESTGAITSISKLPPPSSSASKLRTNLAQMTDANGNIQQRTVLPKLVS
How it was run: (§1)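 Reactions ran 1 h at room temperature in HEPES buffer pH 7.5 with FITC-DYRKtide as substrate. ATP in the substrate mix was 100 µM for DYRK1A, 200 µM for DYRK1B, 40 µM for DYRK2 and 20 µM for DYRK3. Phosphorylated and unphosphorylated peptide were separated on a LabChip, and IC50 was regressed on log dose.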

[2] = target: T2, DYRK3 (Homo sapiens, UniProt O43781); experiment: Inhibition test on activity of DYRK family, mobility shift assay (MSA): DYRK3
T2 construct: purchased Carna Biosciences, Inc. 04-133
T2 sequence (O43781 1-568 isoform O43781-2): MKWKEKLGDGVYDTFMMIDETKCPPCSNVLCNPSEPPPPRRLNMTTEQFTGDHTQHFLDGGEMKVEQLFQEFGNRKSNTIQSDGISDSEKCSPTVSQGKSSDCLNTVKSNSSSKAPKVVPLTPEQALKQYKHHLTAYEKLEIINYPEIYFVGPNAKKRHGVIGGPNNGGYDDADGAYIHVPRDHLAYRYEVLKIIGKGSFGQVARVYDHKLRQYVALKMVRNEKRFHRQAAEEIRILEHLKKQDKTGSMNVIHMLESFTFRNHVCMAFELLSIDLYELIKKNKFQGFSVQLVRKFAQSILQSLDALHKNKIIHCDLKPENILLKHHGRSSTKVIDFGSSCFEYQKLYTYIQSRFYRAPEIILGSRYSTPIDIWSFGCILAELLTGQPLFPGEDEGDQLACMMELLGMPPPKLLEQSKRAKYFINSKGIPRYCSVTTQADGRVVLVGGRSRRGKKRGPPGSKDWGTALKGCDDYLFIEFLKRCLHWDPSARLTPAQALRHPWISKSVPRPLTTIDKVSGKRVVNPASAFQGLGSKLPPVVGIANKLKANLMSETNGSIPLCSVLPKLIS
How it was run: as §1

[3] = target: T3, DYRK1A (Homo sapiens, UniProt Q13627); experiment: Inhibition test on activity of DYRK family, mobility shift assay (MSA): DYRK1A
T3 construct: purchased Carna Biosciences, Inc. 04-130
How it was run: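 IC50 derived by regressing inhibition rate on log compound concentration, using P/(P+S) peak ratios from electrophoretic separation. DYRK1A enzyme solution 0.2 ng/μL, substrate mix with 4 μM FITC-DYRKtide and 100 μM ATP, pH 7.5 HEPES; reaction run 1 h at room temperature.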

[4] = read-out: Inhibitory activity DYRK 2
[5] = read-out: Inhibitory activity DYRK 3
[6] = read-out: Inhibitory activity DYRK 1A
[7] = MSA, FITC-labeled DYRKtide peptide, ATP 40 μM, read-out: Inhibitory activity DYRK 2 (IC50 class)
[8] = MSA, FITC-labeled DYRKtide peptide, ATP 20 μM, read-out: Inhibitory activity DYRK 3 (IC50 class)
[9] = MSA, FITC-labeled DYRKtide peptide, ATP 100 μM, read-out: Inhibitory activity DYRK 1A (IC50 class)

SMILES	IC50 [1, 4] [µM]	IC50 [2, 5] [µM]	IC50 [3, 6] [µM]	IC50 [1, 7] [µM]	IC50 [2, 8] [µM]	IC50 [3, 9] [µM]
O=C1N[C@H]2CCCN(C3COC3)C[C@H]2N1c1nc2c3c(ccc2s1)OCO3 (racemic) [Example 86, rac-(3aR,8aS)-3-(2H-[1,3]dioxolo[4,5-e][1,3]benzothiazol-7-yl)-5-(oxetan-3-yl)octahydroimidazo[4,5-c]azepin-2(1H)-one]	–	–	–	≥ 1	≥ 1	0.01 to 0.1
O=C1N[C@H]2CNCCC[C@H]2N1c1nc2c3c(ccc2s1)OCO3 [Example 54]	–	–	–	0.1 to 1	0.1 to 1	0.01 to 0.1
O=C1N[C@H]2CCN(C3CCC3)C[C@H]2N1c1nc2c3c(ccc2s1)OCC3 (racemic) [Example 72, rac-(3aR,7aS)-5-cyclobutyl-3-(7,8-dihydrofuro[3,2-e][1,3]benzothiazol-2-yl)octahydro-2H-imidazo[4,5-c]pyridin-2-one]	–	–	–	≥ 1	≥ 1	0.01 to 0.1
N#C[C@H]1C[C@@H]2[C@H](CO1)NC(=O)N2c1nc2c3c(ccc2s1)OCCO3 [Example 133, (3aR,6R,7aR)-1-(7,8-dihydro[1,4]dioxino[2,3-e][1,3]benzothiazol-2-yl)-2-oxooctahydropyrano[3,4-d]imidazole-6-carbonitrile]	–	–	–	0.1 to 1	0.1 to 1	< 0.01
O=C1N[C@H]2CCCN(C3CC3)C[C@H]2N1c1nc2c3c(ccc2s1)OCC3 (racemic) [Example 104, rac-(3aR,8aS)-5-cyclopropyl-3-(7,8-dihydrofuro[3,2-e][1,3]benzothiazol-2-yl)octahydroimidazo[4,5-c]azepin-2(1H)-one]	0.1 to 1	0.1 to 1	< 0.01	–	–	–
C#CCN1CCC[C@@H]2NC(=O)N(c3nc4c5c(ccc4s3)OCC5)[C@@H]2C1 (racemic) [Example 105, rac-(3aR,8aS)-3-(7,8-dihydrofuro[3,2-e][1,3]benzothiazol-2-yl)-5-(2-propyn-1-yl)octahydroimidazo[4,5-c]azepin-2(1H)-one]	≥ 1	≥ 1	0.01 to 0.1	–	–	–
C[C@@H]1NC(=O)N(c2nc3c4c(ccc3s2)OCC4)[C@@H]1CN1CC(F)(F)C1 [Example 116, (4S,5R)-5-[(3,3-difluoroazetidin-1-yl)methyl]-1-(7,8-dihydrofuro[3,2-e][1,3]benzothiazol-2-yl)-4-methylimidazolidin-2-one]	≥ 1	≥ 1	0.01 to 0.1	–	–	–
COCCN1CCC2C(C1)NC(=O)N2c1nc2c3c(ccc2s1)OCC3 (stereo not drawn) [Example 10]	–	–	–	≥ 1	≥ 1	0.1 to 1
N#C[C@H]1C[C@@H]2[C@H](CO1)NC(=O)N2c1nc2c3c(ccc2s1)OCO3 [Example 131, (3aR,6R,7aR)-1-(2H-[1,3]dioxolo[4,5-e][1,3]benzothiazol-7-yl)-2-oxooctahydropyrano[3,4-d]imidazole-6-carbonitrile]	0.1 to 1	0.1 to 1	< 0.01	–	–	–
N#CCN1CCC[C@@H]2NC(=O)N(c3nc4c5c(ccc4s3)OCC5)[C@@H]2C1 (racemic) [Example 106, rac-[(3aR,8aS)-3-(7,8-dihydrofuro[3,2-e][1,3]benzothiazol-2-yl)-2-oxooctahydroimidazo[4,5-c]azepin-5(1H)-yl]acetonitrile]	≥ 1	0.1 to 1	0.01 to 0.1	–	–	–
O=C1N[C@@H]2CCN(C3CC3)C[C@@H]2N1c1nc2c3c(ccc2s1)OCC3 (single isomer, unassigned) [Example 109]	≥ 1	≥ 1	≥ 1	–	–	–
O=C1N[C@H]2CN(C3CC3)C[C@H]2N1c1nc2c3c(ccc2s1)OCC3 [Example 101]	≥ 1	≥ 1	0.01 to 0.1	–	–	–
CN1CCC[C@@H]2NC(=O)N(c3nc4c5c(ccc4s3)OCC5)[C@@H]2C1 (relative stereo) [Example 17, cis-3-(7,8-dihydrofuro[3,2-e][1,3]benzothiazol-2-yl)-5-methyloctahydroimidazo[4,5-c]azepin-2(1H)-one]	–	–	–	≥ 1	≥ 1	0.01 to 0.1
CN1CCC[C@@H]2[C@H](C1)NC(=O)N2c1nc2c3c(ccc2s1)OCO3 [Example 84]	–	–	–	0.1 to 1	0.1 to 1	0.01 to 0.1
O=C1N[C@H]2CCNC3(CC3)[C@H]2N1c1nc2c3c(ccc2s1)OCC3 [Example 47]	–	–	–	≥ 1	0.1 to 1	0.1 to 1
C[C@@H]1NC(=O)N(c2nc3c4c(ccc3s2)OCC4)[C@@H]1CN1CC(F)C1 [Example 118, (4S,5R)-1-(7,8-dihydrofuro[3,2-e][1,3]benzothiazol-2-yl)-5-[(3-fluoroazetidin-1-yl)methyl]-4-methylimidazolidin-2-one]	≥ 1	≥ 1	0.01 to 0.1	–	–	–

More lines, now with the values ahead:

IC50 [1, 4] [µM]	IC50 [2, 5] [µM]	IC50 [3, 6] [µM]	IC50 [1, 7] [µM]	IC50 [2, 8] [µM]	IC50 [3, 9] [µM]	SMILES
≥ 1	≥ 1	0.1 to 1	–	–	–	C[C@@H]1[C@@H]2NC(=O)N(c3nc4c5c(ccc4s3)OCC5)[C@@H]2CCN1C [Example 97]
–	–	–	≥ 1	0.1 to 1	0.1 to 1	O=C1N[C@H]2[C@H](F)CNC[C@H]2N1c1nc2c3c(ccc2s1)OCC3 [Example 50]
0.1 to 1	0.1 to 1	0.01 to 0.1	–	–	–	O=C1N[C@H]2CCOC[C@H]2N1c1nc2c3c(ccc2s1)OCC3 (racemic) [Example 120, rac-(3aR,7aR)-3-(7,8-dihydrofuro[3,2-e][1,3]benzothiazol-2-yl)hexahydropyrano[3,4-d]imidazol-2(3H)-one]
–	–	–	≥ 1	≥ 1	0.1 to 1	O=C1N[C@@H]2COC[C@@H]2N1c1nc2c3c(ccc2s1)OCC3 [Example 66]
–	–	–	0.1 to 1	0.1 to 1	0.01 to 0.1	O=C1N[C@H]2CNCCC[C@H]2N1c1nc2c3c(ccc2s1)OCC3 [Example 5]
–	–	–	0.1 to 1	0.1 to 1	0.01 to 0.1	O=C1N[C@@H]2[C@@H](CO[C@@H]2CO)N1c1nc2c3c(ccc2s1)OCC3 [Example 153]
–	–	–	≥ 1	≥ 1	0.1 to 1	C[C@H]1C[C@H]2NC(=O)N(c3nc4c5c(ccc4s3)OCC5)[C@H]2CO1 [Example 134]
≥ 1	0.1 to 1	0.01 to 0.1	–	–	–	C#CCN1C[C@@H]2NC(=O)N(c3nc4c5c(ccc4s3)OCC5)[C@@H]2C1 (racemic) [Example 102, rac-(3aR,6aS)-1-(7,8-dihydrofuro[3,2-e][1,3]benzothiazol-2-yl)-5-(2-propyn-1-yl)hexahydropyrrolo[3,4-d]imidazol-2(1H)-one]
–	–	–	≥ 1	≥ 1	≥ 1	O=C1N[C@@H]2CO[C@H](CO)[C@@H]2N1c1nc2c3c(ccc2s1)OCC3 [Example 154]
–	–	–	≥ 1	0.1 to 1	< 0.01	O=C1N[C@H]2CO[C@@H](CO)C[C@H]2N1c1nc2c3c(ccc2s1)OCC3 [Example 144, (3aR,6R,7aR)-1-(7,8-dihydrofuro[3,2-e][1,3]benzothiazol-2-yl)-6-(hydroxymethyl)hexahydropyrano[3,4-d]imidazol-2(3H)-one]
≥ 1	≥ 1	≥ 1	–	–	–	N#C[C@H]1C[C@H]2NC(=O)N(c3nc4c5c(ccc4s3)OCC5)[C@H]2CO1 [Example 128]
≥ 1	0.1 to 1	0.01 to 0.1	–	–	–	N#CCN1C[C@@H]2NC(=O)N(c3nc4c5c(ccc4s3)OCC5)[C@@H]2C1 (racemic) [Example 103, rac-[(3aR,6aS)-1-(7,8-dihydrofuro[3,2-e][1,3]benzothiazol-2-yl)-2-oxohexahydropyrrolo[3,4-d]imidazol-5(1H)-yl]acetonitrile]
